Patent publication US9963464B2, “Macrocyclic compounds” (Bayer Pharma Aktiengesellschaft, priority 2014, dated 2018)

Legend:
CDK9/CycT1 = biological target: T1, CDK9/CycT1 (Homo sapiens, UniProt P50750); test: CDK9/CycT1 kinase assay (TR-FRET, Method 1a); format: biochemical; conditions: for IC50: Method 1a, 10 μM ATP; for Selectivity CDK9 over CDK2: IC50 (CDK2)/IC50 (CDK9): Methods 1a and 2a, minimal values where CDK9 IC50 is at the assay limit
T1 construct: Recombinant full-length His-tagged human CDK9 and CycT1; His; purchased Invitrogen PV4131; host or cells: insect cells
Source text: 1a. CDK9/CycT1 Kinase Assay:
CDK9/CycT1-inhibitory activity of compounds of the present invention was quantified employing the CDK9/CycT1 TR-FRET assay as described in the following paragraphs:
(§1) Recombinant full-length His-tagged human CDK9 and CycT1, expressed in insect cells and purified by Ni-NTA affinity chromatography, were purchased from Invitrogen (Cat. No PV4131). As substrate for the kinase reaction biotinylated peptide biotin-Ttds-YISPLKSPYKISEG (C-terminus in amid form) was used which can be purchased e.g. from the company JERINI Peptide Technologies (Berlin, Germany). For the assay 50 nl of a 100 fold concentrated solution of the test compound in DMSO was pipetted into a black low volume 384 well microtiter plate (Greiner Bio-One, Frickenhausen, Germany), 2 μl of a solution of CDK9/CycT1 in aqueous assay buffer [50 mM Tris/HCl pH 8.0, 10 mM MgCl2, 1.0 mM dithiothreitol, 0.1 mM sodium ortho-vanadate, 0.01% (v/v) Nonidet-P40 (Sigma)] were added and the mixture was incubated for 15 min at 22° C. to allow pre-binding of the test compounds to the enzyme before the start of the kinase reaction. […] The concentration of CDK9/CycT1 was adjusted depending of the activity of the enzyme lot and was chosen appropriate to have the assay in the linear range, typical concentrations were in the range of 1 μg/mL. The reaction was stopped by the addition of 5 μl of a solution of TR-FRET detection reagents (0.2 μM streptavidine-XL665 [Cisbio Bioassays, Codolet, France] and 1 nM anti-RB(pSer807/pSer811)-antibody from BD Pharmingen [#558389] and 1.2 nM LANCE EU-W1024 labeled anti-mouse IgG antibody [Perkin-Elmer, product no. AD0077]) in an aqueous EDTA-solution (100 mM EDTA, 0.2% (w/v) bovine serum albumin in 100 mM HEPES pH 7.5).
The resulting mixture was incubated 1 h at 22° C. to allow the formation of complex between the phosphorylated biotinylated peptide and the detection reagents. Subsequently the amount of phosphorylated substrate was evaluated by measurement of the resonance energy transfer from the Eu-chelate to the streptavidine-XL. Therefore, the fluorescence emissions at 620 nm and 665 nm after excitation at 350 nm was measured in a HTRF reader, e.g. a Rubystar (BMG Labtechnologies, Offenburg, Germany) or a Viewlux (Perkin-Elmer). The ratio of the emissions at 665 nm and at […] was taken as the measure for the amount of phosphorylated substrate. The data were normalised (enzyme reaction without inhibitor=0% inhibition, all other assay components but no enzyme=100% inhibition).

CDK2/CycE = biological target: T2, CDK2/CycE (Homo sapiens, UniProt P24941); test: CDK2/CycE high ATP kinase assay (TR-FRET, Method 2b); format: biochemical; conditions: 2 mM ATP
T2 construct: GST; purchased ProQinase GmbH (Freiburg, Germany); host or cells: insect cells (Sf9)
Procedure: 2b. CDK2/CycE High ATP Kinase Assay:
CDK2/CycE-inhibitory activity of compounds of the present invention at 2 mM adenosine-tri-phosphate (ATP) was quantified employing the CDK2/CycE TR-FRET (TR-FRET=Time Resolved Fluorescence Resonance Energy Transfer) assay as described in the following paragraphs.
Recombinant fusion proteins of GST and human CDK2 and of GST and human CycE, expressed in insect cells (Sf9) and purified by Glutathion-Sepharose affinity chromatography, were purchase from ProQinase GmbH (Freiburg, Germany). As substrate for the kinase reaction biotinylated peptide biotin-Ttds-YISPLKSPYKISEG (C-terminus in amid form) was used which can be purchased e.g. from the company JERINI peptide technologies (Berlin, Germany).
as §1, with “For” for “Recombinant full-length His-tagged human CDK9 and CycT1, expressed in insect cells and purified by Ni-NTA affinity chromatography, were purchased from Invitrogen (Cat. No PV4131). As substrate for the kinase reaction biotinylated peptide biotin-Ttds-YISPLKSPYKISEG (C-terminus in amid form) was used which can be purchased e.g. from the company JERINI Peptide Technologies (Berlin, Germany). For”, “CDK2/CycE” for “CDK9/CycT1”, “15 ng/ml.” for “1 μg/mL.”, “AD0077, as an alternative a Terbium-cryptate-labeled anti-mouse IgG antibody from Cisbio Bioassays can be used])” for “AD0077])”
The resulting mixture was incubated 1 h at 22° C. to allow the formation of complex between the phosphorylated biotinylated peptide and the detection reagents. Subsequently the amount of phosphorylated substrate was evaluated by measurement of the resonance energy transfer from the Eu-chelate to the streptavidine-XL. Therefore, the fluorescence emissions at 620 nm and 665 nm after excitation at 350 nm were measured in a TR-FRET reader, e.g. a Rubystar (BMG Labtechnologies, Offenburg, Germany) or a Viewlux (Perkin-Elmer). The ratio of the emissions at 665 nm and at […] was taken as the measure for the amount of phosphorylated substrate. The data were normalised (enzyme reaction without inhibitor=0% inhibition, all other assay components but no enzyme=100% inhibition).

T1 sequence (P50750 whole entry): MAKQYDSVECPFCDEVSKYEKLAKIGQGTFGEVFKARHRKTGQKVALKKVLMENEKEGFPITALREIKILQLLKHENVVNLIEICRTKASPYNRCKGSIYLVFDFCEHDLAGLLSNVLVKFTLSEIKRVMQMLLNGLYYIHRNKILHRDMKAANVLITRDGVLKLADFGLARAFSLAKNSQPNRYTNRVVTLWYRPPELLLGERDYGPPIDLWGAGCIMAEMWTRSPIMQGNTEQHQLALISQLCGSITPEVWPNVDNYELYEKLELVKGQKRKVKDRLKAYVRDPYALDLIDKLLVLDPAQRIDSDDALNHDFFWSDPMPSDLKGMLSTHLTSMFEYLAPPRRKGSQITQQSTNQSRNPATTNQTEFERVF
T1 sequence (O60563 whole entry partner): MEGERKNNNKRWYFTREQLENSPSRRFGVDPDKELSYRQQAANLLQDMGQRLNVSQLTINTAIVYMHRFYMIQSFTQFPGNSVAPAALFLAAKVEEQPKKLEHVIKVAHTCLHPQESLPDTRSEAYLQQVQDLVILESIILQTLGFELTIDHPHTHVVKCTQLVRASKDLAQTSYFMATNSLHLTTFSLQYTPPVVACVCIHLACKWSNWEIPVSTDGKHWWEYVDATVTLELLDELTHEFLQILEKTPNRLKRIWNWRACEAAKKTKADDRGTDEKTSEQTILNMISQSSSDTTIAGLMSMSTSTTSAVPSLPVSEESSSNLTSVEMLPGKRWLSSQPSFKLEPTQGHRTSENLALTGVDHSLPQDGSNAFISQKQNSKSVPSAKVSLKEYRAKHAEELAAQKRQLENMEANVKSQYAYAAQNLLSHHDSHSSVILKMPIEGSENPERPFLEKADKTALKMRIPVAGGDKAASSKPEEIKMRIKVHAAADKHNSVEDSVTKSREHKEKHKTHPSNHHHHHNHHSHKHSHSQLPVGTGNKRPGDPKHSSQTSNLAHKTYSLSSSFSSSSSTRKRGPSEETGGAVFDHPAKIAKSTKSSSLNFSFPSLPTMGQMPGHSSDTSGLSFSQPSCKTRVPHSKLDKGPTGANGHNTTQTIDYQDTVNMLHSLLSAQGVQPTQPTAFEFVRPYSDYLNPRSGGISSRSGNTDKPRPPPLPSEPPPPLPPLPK

IC50 (CDK9/CycT1) [nM]	Selectivity CDK9 over CDK2: IC50 (CDK2)/IC50 (CDK9) (CDK9/CycT1)	IC50 (CDK2/CycE) [nM]	Structure (SMILES)
5.3	3.7	195	CS(=O)(=O)N=S(C)(=O)Cc1cc2nc(c1)OCCCOc1cc(F)ccc1-c1cc(ncc1F)N2 (racemic) [Example 22, (rac)-N-[{[15,19-difluoro-3,4-dihydro-2H,11H-10,6-(azeno)-12,16-(metheno)-1,5,11,13-benzodioxadiazacyclooctadecin-8-yl]methyl}(methyl)oxido-λ^6-sulfanylidene]methanesulfonamide]
2.9	7.4	216	CS(=N)(=O)Cc1cc2cc(c1)OCCCCOc1cc(F)ccc1-c1nc(ncc1F)N2 (racemic) [Example 1, (rac)-16,20-Difluoro-9-[(S-methylsulfonimidoyl)methyl]-2,3,4,5-tetrahydro-12H-13,17-(azeno)-11,7-(metheno)-1,6,12,14-benzodioxadiazacyclononadecine]
3	0.65	20	CS(=N)(=O)Cc1cc2nc(c1)OCCCOc1cc(F)ccc1-c1cc(ncc1F)N2 (racemic) [Example 5, (rac)-15,19-Difluoro-8-[(S-methylsulfonimidoyl)methyl]-3,4-dihydro-2H,11H-10,6-(azeno)-12,16-(metheno)-1,5,11,13-benzodioxadiazacyclooctadecine]
3.9	14.8	670	CS(=O)(Cc1cc2cc(c1)OCCCOc1cc(F)ccc1-c1nc(ncc1F)N2)=NC(=O)C(F)(F)F (racemic) [Example 16, (rac)-N-[{[15,19-difluoro-3,4-dihydro-2H,11H-12,16-(azeno)-10,6-(metheno)-1,5,11,13-benzodioxadiazacyclooctadecin-8-yl]methyl}(methyl)oxido-λ^6-sulfanylidene]-2,2,2-trifluoroacetamide]
4.8	4.1	162	CS(=N)(=O)Cc1cc2nc(c1)OCCCCOc1cc(F)ccc1-c1cc(ncc1F)N2 (racemic) [Example 14, (rac)-16,20-difluoro-9-[(S-methylsulfonimidoyl)methyl]-2,3,4,5-tetrahydro-12H-11,7-(azeno)-13,17-(metheno)-1,6,12,14-benzodioxadiazacyclononadecine]
16.5	6.9	890	CSCc1cc2nc(c1)OCCCCOc1cc(F)ccc1-c1cc(ncc1F)N2 [Example 12, 16,20-Difluoro-9-[(methylsulfanyl)methyl]-2,3,4,5-tetrahydro-12H-11,7-(azeno)-13,17-(metheno)-1,6,12,14-benzodioxadiazacyclononadecine]
4.9	1.7	63.2	CC(=O)N=S(C)(=O)Cc1cc2nc(c1)OCCCOc1cc(F)ccc1-c1cc(ncc1F)N2 (racemic) [Example 18, (rac)-N-[{[15,19-difluoro-3,4-dihydro-2H,11H-10,6-(azeno)-12,16-(metheno)-1,5,11,13-benzodioxadiazacyclooctadecin-8-yl]methyl}(methyl)oxido-λ^6-sulfanylidene]acetamide]
4.3	1.3	18	CS(=O)(Cc1cc2nc(c1)OCCCOc1cc(F)ccc1-c1cc(ncc1F)N2)=NC(=O)OCCN (racemic) [Example 25, (rac)-2-aminoethyl [{[15,19-difluoro-3,4-dihydro-2H,11H-10,6-(azeno)-12,16-(metheno)-1,5,11,13-benzodioxadiazacyclooctadecin-8-yl]methyl}(methyl)oxido-λ^6-sulfanylidene]carbamate]
7.3	56.5	3500	C[S+]([O-])Cc1cc2nc(c1)OCCOc1cc(F)ccc1-c1cc(ncc1F)N2 (racemic) [Example 10, (rac)-14,18-difluoro-7-[(methylsulfinyl)methyl]-2,3-dihydro-10H-9,5-(azeno)-11,15-(metheno)-1,4,10,12-benzodioxadiazacycloheptadecine]
3	0.9	38.3	CS(=N)(=O)Cc1cc2nc(c1)OCCCOc1cc(F)ccc1-c1cc(ncc1F)N2 (single isomer, unassigned; enantiomer 1) [Example 6, 15,19-Difluoro-8-[(S-methylsulfonimidoyl)methyl]-3,4-dihydro-2H,11H-10,6-(azeno)-12,16-(metheno)-1,5,11,13-benzodioxadiazacyclooctadecine; Enantiomer 1]
7.3	0.3	50.4	CS(=N)(=O)Cc1cc2nc(c1)OCCCOc1cc(F)ccc1-c1cc(ncc1F)N2 (single isomer, unassigned; enantiomer 2) [Example 7, 15,19-Difluoro-8-[(S-methylsulfonimidoyl)methyl]-3,4-dihydro-2H,11H-10,6-(azeno)-12,16-(metheno)-1,5,11,13-benzodioxadiazacyclooctadecine; Enantiomer 2]
6.8	6.0	128	CSCc1cc2nc(c1)OCCCOc1cc(F)ccc1-c1cc(ncc1F)N2 [Example 3, 15,19-Difluoro-8-[(methylsulfanyl)methyl]-3,4-dihydro-2H,11H-10,6-(azeno)-12,16-(metheno)-1,5,11,13-benzodioxadiazacyclooctadecine]
2.2	6.2	166	CS(=O)(Cc1cc2nc(c1)OCCCOc1cc(F)ccc1-c1cc(ncc1F)N2)=NS(=O)(=O)CCN.O=C(O)C(F)(F)F (racemic) [Example 24, (rac)-2-{[{[15,19-difluoro-3,4-dihydro-2H,11H-10,6-(azeno)-12,16-(metheno)-1,5,11,13-benzodioxadiazacyclooctadecin-8-yl]methyl}(methyl)oxido-λ^6-sulfanylidene]sulfamoyl}ethanaminium trifluoroacetate]
